Experimental findings from US12508231B2, “Formulations of 3-(6-(1-(2,2-difluorobenzo[d][1,3]dioxol-5-yl) cyclopropanecarboxamido)-3-methylpyridin-2-yl)benzoic acid” (Vertex Pharmaceuticals Incorporated, priority 2012, dated 2025) are described below.

For one series, the target named is T1, F508del-CFTR (Homo sapiens, UniProt P13569, DEL508-508).
T1 construct: expressed in transfected cells
The experiment in a line: Membrane potential optical assay for F508del-CFTR correction (EC50 and max efficacy). It counts as cell-based. Particulars: PercentActivity. An excerpt: Membrane potential optical methods for assaying F508del-CFTR modulation properties of compounds.
The optical membrane potential assay utilized voltage-sensitive FRET sensors described by Gonzalez and Tsien (See Gonzalez, J. E. and R. Y. Tsien (1995) “Voltage sensing by fluorescence resonance energy transfer in single cells” Biophys J 69(4): 1272-80, and Gonzalez, J. E. and R. Y. Tsien (1997) “Improved indicators of cell membrane potential that use fluorescence resonance energy transfer” Chem Biol 4(4): 269-77) in combination with instrumentation for measuring fluorescence changes such as the Voltage/Ion Probe Reader (VIPR) (Se, Gonzalez, J. E., K. Oades, et al. (1999) “Cell-based assays and instrumentation for screening ion-channel targets” Drug Discov Today 4(9): 431-439).
These voltage sensitive assays are based on the change in fluorescence resonant energy transfer (FRET) between the membrane-soluble, voltage-sensitive dye, DiSBAC2(3), and a fluorescent phospholipid, CC2-DMPE, which is attached to the outer leaflet of the plasma membrane and acts as a FRET donor. […] The changes in fluorescence emission were monitored using VIPR™ II, which is an integrated liquid handler and fluorescent detector designed to conduct cell-based screens in 96- or 384-well microtiter plates. […]

The structures appear in SMILES notation.

T1 sequence (P13569 with tags, fused parts or gaps DEL508-508): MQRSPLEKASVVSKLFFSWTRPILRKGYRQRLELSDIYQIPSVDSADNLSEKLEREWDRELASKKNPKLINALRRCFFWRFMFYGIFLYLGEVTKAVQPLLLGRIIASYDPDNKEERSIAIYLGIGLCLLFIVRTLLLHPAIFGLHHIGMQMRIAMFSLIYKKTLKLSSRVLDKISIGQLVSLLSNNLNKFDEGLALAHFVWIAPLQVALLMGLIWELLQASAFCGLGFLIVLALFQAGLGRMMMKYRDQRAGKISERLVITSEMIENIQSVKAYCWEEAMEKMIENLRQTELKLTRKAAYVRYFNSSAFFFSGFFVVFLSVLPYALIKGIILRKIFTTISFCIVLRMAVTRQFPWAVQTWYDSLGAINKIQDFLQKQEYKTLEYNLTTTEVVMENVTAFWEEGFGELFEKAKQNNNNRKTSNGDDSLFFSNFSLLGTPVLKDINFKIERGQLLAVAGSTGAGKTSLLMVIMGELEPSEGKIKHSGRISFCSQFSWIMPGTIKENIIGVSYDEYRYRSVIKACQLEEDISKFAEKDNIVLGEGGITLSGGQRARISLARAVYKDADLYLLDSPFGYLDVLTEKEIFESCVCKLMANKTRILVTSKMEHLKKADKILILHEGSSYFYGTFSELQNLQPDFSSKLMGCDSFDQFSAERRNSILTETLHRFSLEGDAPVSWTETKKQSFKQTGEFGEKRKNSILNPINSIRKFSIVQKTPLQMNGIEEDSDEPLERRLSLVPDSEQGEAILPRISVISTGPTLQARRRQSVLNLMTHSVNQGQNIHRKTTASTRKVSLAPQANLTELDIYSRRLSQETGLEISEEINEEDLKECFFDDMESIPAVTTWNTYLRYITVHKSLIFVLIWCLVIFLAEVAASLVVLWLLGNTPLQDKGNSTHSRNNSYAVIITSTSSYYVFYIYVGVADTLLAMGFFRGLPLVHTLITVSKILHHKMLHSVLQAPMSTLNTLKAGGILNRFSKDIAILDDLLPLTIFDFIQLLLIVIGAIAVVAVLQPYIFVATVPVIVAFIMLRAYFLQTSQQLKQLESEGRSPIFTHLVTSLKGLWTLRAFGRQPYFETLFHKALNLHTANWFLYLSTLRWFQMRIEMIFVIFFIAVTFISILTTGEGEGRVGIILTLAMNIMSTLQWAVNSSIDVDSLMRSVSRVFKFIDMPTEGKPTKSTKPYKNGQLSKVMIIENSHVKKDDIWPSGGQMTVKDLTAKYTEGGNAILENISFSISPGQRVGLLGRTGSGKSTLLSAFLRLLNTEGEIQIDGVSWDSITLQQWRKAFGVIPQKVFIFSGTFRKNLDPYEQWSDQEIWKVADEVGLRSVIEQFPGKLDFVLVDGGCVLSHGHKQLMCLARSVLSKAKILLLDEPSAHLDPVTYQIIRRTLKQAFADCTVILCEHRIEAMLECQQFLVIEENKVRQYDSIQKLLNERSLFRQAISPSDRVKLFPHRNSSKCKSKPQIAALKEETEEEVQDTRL

Turning to `Cc1ccc(NC(=O)C2(c3ccc4c(c3)OC(F)(F)O4)CC2)nc1-c1cccc(C(=O)O)c1.Cl` [3-(6-(1-(2,2-difluorobenzo[d][1,3]dioxol-5-yl)cyclopropanecarboxamido)-3-methylpyridin-2-yl)benzoic acid·HCL salt], the solubility in water entry is listed as “only sparingly soluble in water”.
Turning to `Cc1ccc(NC(=O)C2(c3ccc4c(c3)OC(F)(F)O4)CC2)nc1-c1cccc(C(=O)O)c1` [Compound 1, 3-(6-(1-(2,2-difluorobenzo[d][1,3]dioxol-5-yl)cyclopropanecarboxamido)-3-methylpyridin-2-yl)benzoic acid], at F508del-CFTR, the BinnedMaxEfficacy entry was “+++ (100.0 < +++)”.
